According to patent EP2982368A1, “Small molecule compounds displacing focal adhesion core components” (Universität Konstanz, priority 2014, dated 2016):

Legend:
Format in all cases: cell-based, mouse
FAK = experiment: Immunoblot of FAK and paxillin protein level and FAK Tyr397 phosphorylation; details: serum-starved GFP-FAK MEFs, increasing concentrations, 30 min
Procedure: (§1) Image J was used to automatically quantify FAK-containing focal adhesions due to local maxima of fluorescence intensity in the GFP-channel (5 to 70 pixel). The number of cells was automatically counted in the Hoechst channel. To test reproducibility of the system 40 control wells were quantified wherein four positions for each well were imaged. […] GFP-FAK mouse embryonic fibroblasts were seeded on fibronectin and incubated for 1 h with the indicated concentrations of the small compounds, respectively. […] GFP-FAK mouse embryonic fibroblasts were seeded on fibronectin and serum-starved overnight. The indicated concentrations of Mb31 were applied for 30 min. Cells were lysed and analyzed for paxillin and FAK protein level as well as FAK Tyr397 phosphorylation. […] The purified kinase domain of FAK was incubated with increasing amounts of Mb31 for 1 h at 30°C together with poly-Glu-Tyr as a FAK substrate. […] Cell viability was assessed by MTT assay. […] Migration was recorded from cells that were cultured without serum (A), with serum (B) or with serum in the presence of 3 µM Mb31 (C). […] Mouse embryonic fibroblasts (MEFs) were transfected with talin-mCherry and talin dynamics analyzed in focal adhesions using fluorescence recovery after photobleaching (FRAP). […] (C) Wound closure was microscopically analyzed and evaluated using ImageJ software. […]

paxillin = experiment: Paxillin displacement in GFP-FAK MEFs (antibody staining, live cell imaging of mKate-paxillin); details: 10 µM
Procedure: The C-terminal focal adhesion targeting domain of FAK binds to paxillin and talin and is responsible for an efficient recruitment of FAK to focal adhesions. Therefore, it was further investigated whether Mb31 targets FAK directly or possibly in an indirect way by displacement of FAK binding proteins paxillin or talin, respectively. GFP-FAK MEFs were treated with 10 µM of Mb31 and analyzed for paxillin and talin localization via antibody staining. […] To analyze whether FAK and paxillin displacement occur with the same temporal pattern GFP-FAK MEFs were transiently transfected to express mKate-tagged paxillin and living cells were imaged after application of 10 µM of Mb31. Along with FAK, paxillin delocalized rapidly and within 10 min almost no paxillin and FAK remained at focal adhesions. Strikingly, in cells over-expressing paxillin higher Mb31 concentrations were necessary in order to achieve efficient FAK displacement. In non-transfected cells already 4 to 5 µM Mb31 were sufficient, whereas in cells with strong over-expression of paxillin even at 10 µM FAK and paxillin displacement was only partial. […] Still, vinculin localization was not altered in FAK-deficient MEFs treated with Mb31.
MEFs were seeded on fibronectin fragment (4 µg/ml in PBS) in multi-well plates (Greiner Bio-One) and incubated for 4 h to allow spreading. Cells were fixed and permeabilized with MeOH at -20°C after pre-fixation with 4% paraformaldehyde. Cells were blocked with 10% CS in PBS (blocking buffer) and incubated with primary antibodies (α-talin, α-paxillin or α-vinculin) in blocking buffer for 1 h at room temperature. Cells were washed three times with PBS and were incubated with appropriate fluorescently labeled secondary antibodies. Cells were washed again with PBS to remove excess antibodies and were imaged using a Leica AF6000LX fluorescence microscope. To analyze reversibility compound treated cells were washed three times with pre-warmed growth medium. After washout cells were incubated 1 h in presence of 10 µg/ml cycloheximide. […]

talin = experiment: Talin-mCherry fluorescence recovery after photobleaching (FRAP); details: 10 µM
Procedure: as §1

## O=[N+]([O-])C=Cc1cc(Br)cs1 [FootLocker 1, 4-bromo-2-(2-nitrovinyl)thiophene]
FAK
  Y397 phosphorylation of FAK: not influenced
  degradation of FAK and paxillin (protein levels): Neither for FAK nor for paxillin was any degradation observed
paxillin
  FAK and paxillin displacement in cells with strong over-expression of paxillin: only partial
paxillin; 30 min, antibody staining
  paxillin localization: displaced from focal adhesions
paxillin; living cells expressing mKate-tagged paxillin
  time until almost no paxillin and FAK remained at focal adhesions: ≤ 10 min
talin
  talin-associated fluorescence recovery at bleached focal adhesions: did not recover
